# In patent US4160829A, “Antibacterial 1,2,4-oxadiazolylacetamido cephalosporins” (Gist-Brocades N.V., priority 1972, dated 1979):
# Where two headings read alike, the source gives them in different places.
# Columns and labels:
# Salm.dubl. P 43 = assay: agar serial dilution test; type: cell-based, Salmonella dublin; settings: Salmonella enterica; agar serial dilution, 24 hours, 37° C.; read-out: minimal inhibitory concentration (MIC)
# Salm.typh. R 127 [1] = assay: micro serial dilution test; type: cell-based; settings: micro serial dilution (in brackets), about 18 hours, 30° C. or 37° C.; read-out: minimal inhibitory concentration (MIC)
# From the text: Two drops of a stock solution of the test compound (antibiotic) in a known concentration were brought into the first hole of a test plate with 9 numbered holes with a sterile Pasteur pipette. After rinsing this pipette three times with a physiological NaCl-solution, two drops of a stock solution of the test organism in a culture medium were brought in all the holes except for hole 8. In the first hole, the solution of the tested compound had been half diluted, then by stirring the liquid in the first hole and adding two drops of this mixture to the second hole and so on until hole 8, dilutions of the test compound solution were obtained in geometrical progression. The hole 9 contained no antibiotic and served for checking the growth of the testogranism in a blank medium. The test plate was incubated at 30° C. or 37° C. for about 18 hours.
# Prot.mirab. H 3 = assay: agar serial dilution test; type: cell-based, Proteus mirabilis; settings: Proteus mirabilis
# Staph.aureus A 355 [2] = assay: agar serial dilution test; settings: Staphylococcus aureus, A355, 24 h, read-out: minimal inhibitory concentration (MIC), agar serial dilution, 24 hours, 37° C.; penicillinase-producing strain
# [3] = system: penicillin resistant Staphylococcus aureus strain; assay: protection test; type: in vivo; settings: sc
# From the text: The compound may preferably be used parenterally.
# Pseud.aerug. 2396 = assay: agar serial dilution test; type: cell-based; settings: agar serial dilution, 24 hours, 37° C.; read-out: minimal inhibitory concentration (MIC)
# Prot.mirab. L 93 = assay: agar serial dilution test; type: cell-based, Proteus mirabilis; settings: Proteus mirabilis
# Past.multo. A 723 = assay: agar serial dilution test; type: cell-based, Pasteurella multocida; settings: Pasteurella multocida; agar serial dilution, 24 hours, 37° C.; read-out: minimal inhibitory concentration (MIC)
# Bruc.melit. A 488 = assay: microbe, parasite or virus in culture; type: cell-based; settings: Brucella melitensis, 24 h, read-out: minimal inhibitory concentration (MIC)
# acute toxicity in mice = settings: mouse, in vivo, ip; mice (Swiss), one intraperitoneal administration
# Method: (a) For sodium 7-[(3-methyl-1,2,4-oxadiazol-5-yl)-acetamido]-cephalosporanate (as prepared in Example 10), the acute toxicity was determined in mice (Swiss) with one intraperitoneal administration. The LD50 appeared to be >6000 mg/kg (Cephalotin-LD50 >6000 mg/kg).
# Bac.Subt.ATCC 6633 = assay: agar serial dilution test; type: cell-based, Bacillus subtilis; settings: Bacillus subtilis, ATCC6633, 24 h, agar serial dilution, 24 hours, 37° C.; read-out: minimal inhibitory concentration (MIC)
# Staph.aureus A 2000 [4] = assay: agar serial dilution test; type: cell-based, Staphylococcus aureus; settings: Staphylococcus aureus, A2000, 24 h, agar serial dilution, 24 hours, 37° C.; read-out: minimal inhibitory concentration (MIC)
# Strep.haem. A 266 = assay: agar serial dilution test; type: cell-based, Streptococcus haemolyticus; settings: Streptococcus; agar serial dilution, 24 hours, 37° C.; read-out: minimal inhibitory concentration (MIC)
# Staph.aureus A 321 = assay: agar serial dilution test; type: cell-based, Staphylococcus aureus; settings: Staphylococcus aureus, A321, 24 h, agar serial dilution, 24 hours, 37° C.; read-out: minimal inhibitory concentration (MIC)
# Kleb.pneum. A 809 [5] = assay: micro serial dilution test; type: cell-based; settings: Klebsiella pneumoniae; micro serial dilution (in brackets), about 18 hours, 30° C. or 37° C.; read-out: minimal inhibitory concentration (MIC)
# [6] = system: Pseud.aerug. Wyeth A 1058; assay: agar serial dilution test; type: cell-based; settings: agar serial dilution, 24 hours, 37° C.; read-out: minimal inhibitory concentration (MIC)
# Escherichia coli = assay: protection test; type: in vivo; settings: ip
# Strep. faec. L 80 = assay: agar serial dilution test; type: cell-based, Streptococcus faecalis; settings: Enterococcus faecalis; agar serial dilution, 24 hours, 37° C.; read-out: minimal inhibitory concentration (MIC)
# [7] = system: Staph. aureus pen.resistant; assay: protection test; type: in vivo; settings: Staphylococcus aureus, sc
# Prot.rettg. A 821 = assay: agar serial dilution test; type: cell-based, Proteus rettgeri; settings: Providencia rettgeri, 24 h, read-out: minimal inhibitory concentration (MIC)
# Proteus rettgeri = assay: protection test; type: in vivo; settings: Providencia rettgeri, sc
# Dipl.pneum. L 54 = assay: agar serial dilution test; type: cell-based, Diplococcus pneumoniae; settings: Streptococcus pneumoniae; agar serial dilution, 24 hours, 37° C.; read-out: minimal inhibitory concentration (MIC)
# Prot.morg. 2241 = assay: agar serial dilution test; type: cell-based; settings: 24 h, agar serial dilution, 24 hours, 37° C.; read-out: minimal inhibitory concentration (MIC)
# Esch.coli U 20 = assay: agar serial dilution test; type: cell-based, Escherichia coli; settings: Escherichia coli
# Klebsiella pneumoniae = assay: protection test; type: in vivo; settings: ip
# Shig.equir. T 3 = assay: agar serial dilution test; type: cell-based; settings: 37° C.; for MIC: 24 h, read-out: minimal inhibitory concentration (MIC)
# Kleb.pneum. A 809 [8] = assay: agar serial dilution test; type: cell-based, Klebsiella pneumoniae; settings: Klebsiella pneumoniae; agar serial dilution, 24 hours, 37° C.; read-out: minimal inhibitory concentration (MIC)
# Pseud.aerug. H 10 = assay: agar serial dilution test; type: cell-based; settings: agar serial dilution, 24 hours, 37° C.; read-out: minimal inhibitory concentration (MIC)
# Strep.haem A 1088 = assay: agar serial dilution test; type: cell-based, Streptococcus haemolyticus; settings: Streptococcus, A1088, 24 hours, 37° C., read-out: minimal inhibitory concentration (MIC)
# Staph.aureus A 2000 [9] = assay: micro serial dilution test; type: cell-based, Staphylococcus aureus; settings: Staphylococcus aureus, A2000, 18 h, micro serial dilution (in brackets), about 18 hours, 30° C. or 37° C.; read-out: minimal inhibitory concentration (MIC)
# Sarc. lutea ATCC 9341 = assay: micro serial dilution test; type: cell-based; settings: Micrococcus luteus, ATCC9341; micro serial dilution (in brackets), about 18 hours, 30° C. or 37° C.; read-out: minimal inhibitory concentration (MIC)
# Bruc. Suis A 2126 = assay: agar serial dilution test; type: cell-based; settings: Brucella suis, 24 h, read-out: minimal inhibitory concentration (MIC)
# Haem.Suis A 2096 = assay: micro serial dilution test; type: cell-based; settings: micro serial dilution (in brackets), about 18 hours, 30° C. or 37° C.; read-out: minimal inhibitory concentration (MIC)
# Actinob.equ. T 3 = assay: agar serial dilution test; type: cell-based; settings: 24 hours, 37° C., read-out: minimal inhibitory concentration (MIC)
# Salm.typh. R 172 = assay: agar serial dilution test; type: cell-based; settings: 24 h, read-out: minimal inhibitory concentration (MIC)
# Proteus mirabilis A 1200 = assay: protection test; type: in vivo; settings: s.c.; for ED50: protection test
# Proteus rettgeri A 821 = assay: protection test; type: in vivo; settings: s.c.
# Prot.mirab. A 1200 [10] = assay: agar serial dilution test; type: cell-based, Proteus mirabilis; settings: agar serial dilution, 24 hours, 37° C.; for MIC: Proteus mirabilis, 24 h, read-out: minimal inhibitory concentration (MIC)
# Prot.mirab. A 1200 [11] = assay: micro serial dilution test; type: cell-based; settings: Proteus mirabilis; micro serial dilution (in brackets), about 18 hours, 30° C. or 37° C.; read-out: minimal inhibitory concentration (MIC)
# Staph.aureus A 355 [12] = assay: micro serial dilution test; type: cell-based, Staphylococcus aureus; settings: Staphylococcus aureus, A355; micro serial dilution (in brackets), about 18 hours, 30° C. or 37° C.; penicillinase-producing strain; read-out: minimal inhibitory concentration (MIC)
# [13] = system: Klebsiella pneumoniae A 265; assay: protection test; type: in vivo; settings: i.p.
# Staph.aureus A 2001 [14] = assay: micro serial dilution test; type: cell-based, Staphylococcus aureus; settings: Staphylococcus aureus, A2001, 18 h, micro serial dilution (in brackets), about 18 hours, 30° C. or 37° C.; read-out: minimal inhibitory concentration (MIC)
# Staph.aureus A 2001 [15] = assay: agar serial dilution test; type: cell-based, Staphylococcus aureus; settings: Staphylococcus aureus, A2001, 24 h, agar serial dilution, 24 hours, 37° C.; read-out: minimal inhibitory concentration (MIC)
# [16] = tests with mice, blood levels and urine activity
# Salm.typh. R 127 [17] = assay: agar serial dilution test; type: cell-based; settings: 24 h, 37° C., read-out: minimal inhibitory concentration (MIC)
# [18] = stability in refluxing slightly moist diethyl ether (thin-layer chromatography); type: physicochemical; settings: refluxed 24 hours, read-out: destruction to 5-methyl-1,2,4-oxadiazol-3-yl-acetic acid
# Method: Stability of 1,2,4-oxadiazol-3,5-diyl-bisacetic acid: A small sample was dissolved in slightly moist diethyl ether and the solution was refluxed for 24 hours.
# [19] = 24 h, read-out: minimal inhibitory concentration (MIC), agar serial dilution, 24 hours, 37° C.
# [20] = agar serial dilution, 24 hours, 37° C., read-out: minimal inhibitory concentration (MIC)
# [21] = U20, agar serial dilution, 24 hours, 37° C., read-out: minimal inhibitory concentration (MIC)
# [22] = agar serial dilution, 24 hours, 37° C.
Structure (SMILES),MIC (Salm.dubl. P 43) [mg/L],MIC (Staph.aureus A 355 [2]) [mg/L],MIC (Pseud.aerug. 2396) [mg/L],MIC (Prot.mirab. L 93; [20]) [mg/L],MIC (Past.multo. A 723) [mg/L],MIC (Bac.Subt.ATCC 6633) [mg/L],MIC (Staph.aureus A 2000 [4]) [mg/L],MIC (Strep.haem. A 266) [mg/L],MIC (Staph.aureus A 321) [mg/L],MIC [6] [mg/L],MIC (Strep. faec. L 80) [mg/L],MIC (Prot.rettg. A 821) [mg/L],MIC (Dipl.pneum. L 54) [mg/L],MIC (Prot.morg. 2241) [mg/L],MIC (Esch.coli U 20; [21]) [mg/L],MIC (Shig.equir. T 3) [mg/L],MIC (Kleb.pneum. A 809 [8]) [mg/L],MIC (Pseud.aerug. H 10) [mg/L],MIC (Prot.mirab. H 3; [20]) [mg/L],MIC (Staph.aureus A 2000 [9]) [mg/L],also measured
"CC(=O)OCC1=C(C(=O)O)N2C(=O)[C@@H](NC(=O)Cc3cccs3)[C@H]2SC1 [Cephalotin, reference compound]",1.5,0.5,> 100,0.6,0.7,0.12,0.5,0.06,0.5,> 100,25,12.5,0.5,> 100,3,1.5,0.7,> 100,,,MIC (Salm.typh. R 127 [1]): 3 mg/L; MIC (Prot.mirab. H 3; [19]): 12.5 mg/L; ED50 [3]: 1.3 mg/kg; MIC (Bruc.melit. A 488): 6 mg/L; LD50 (acute toxicity in mice): > 6000 mg/kg; MIC (Kleb.pneum. A 809 [5]): 0.37 mg/L; ED50 (Escherichia coli): > 300 mg/kg; ED50 [7]: 37.6 mg/kg; ED50 (Proteus rettgeri): 4.34 mg/kg; ED50 (Klebsiella pneumoniae): 0.8 mg/kg
"Cn1nnnc1SCC1=C(C(=O)O)N2C(=O)[C@@H](NC(=O)Cc3nc(CC(=O)O)no3)[C@H]2SC1 [Compound F, disodium 7-[(3-carboxymethyl-1,2,4-oxadiazol-5-yl)-acetamido]-3[1-methyl-tetrazol-5-yl-mercaptomethyl] 3-cephem-4-carboxylate]",0.5,6,100,1.5,1,1.5,6,,3,100,> 100,,1,25,0.75,,0.5,100,1.5,4,"MIC (Strep.haem A 1088): 3 mg/L; MIC (Sarc. lutea ATCC 9341): 3.7 mg/L; MIC (Bruc. Suis A 2126): 1 mg/L; MIC (Haem.Suis A 2096): 0.23 mg/L; MIC (Actinob.equ. T 3): 0.5 mg/L; MIC (Salm.typh. R 172): 0.75 mg/L; ED50 (Proteus mirabilis A 1200; Proteus mirabilis, A1200, sc, read-out: ED50): 2.2 mg/kg; ED50 (Proteus mirabilis A 1200): 1,35 mg/kg; Potency ratio (Proteus mirabilis A 1200; reference Cefalotin): 6,9; Potency ratio (Proteus mirabilis A 1200; reference Cefazolin): 6,5; ED50 (Proteus rettgeri A 821; Providencia rettgeri, A821, sc, protection test): 0.023 mg/kg; Potency ratio (Proteus rettgeri A 821; reference Cefalotin): > 5; MIC (Prot.rettg. A 821; [22]): 0.25 mg/L; MIC (Prot.mirab. A 1200 [10]): 3 mg/L; MIC (Prot.mirab. A 1200 [11]): 1.2 mg/L; MIC (Staph.aureus A 355 [12]): 6 mg/L; ED50 ([13]; Klebsiella pneumoniae, A265, ip, protection test): 16 mg/kg; Potency ratio ([13]; reference Cefalotin): 5,7; MIC (Staph.aureus A 2001 [14]): 3.7 mg/L; MIC (Staph.aureus A 2001 [15]): 6 mg/L"
"COCc1noc(CC(=O)N[C@@H]2C(=O)N3C(C(=O)O)=C(COC(C)=O)CS[C@H]23)n1 [Example 37, 7-[3-methoxymethyl-1,2,4-oxadiazol-5-yl-acetamido]-cephalosporanic acid]",3,1.5,> 100,6,1,0.12,1.5,0.12,0.5,> 100,50,12.5,0.75,> 100,,3,3,> 100,25,0.6,"ED50 ([3]; protection test, subcutanal administration, read-out: ED50): 1.2 mg/kg; blood levels (in words) [16]: good blood levels; urine activity against pathogenic germs (in words) [16]: strong urine activity against pathogenic germs; MIC (Prot.mirab. L 93; [19]): 12.5 mg/L; MIC (Salm.typh. R 127 [17]): 12.5 mg/L; MIC (Prot.rettg. A 821; [22]): 3 mg/L; MIC (Prot.mirab. A 1200 [10]): 50 mg/L; minimal inhibitory concentration (MIC) (Prot.mirab. A 1200 [10]): 100 mg/L; MIC (Staph.aureus A 355 [12]): 0.9 mg/L; MIC (Esch.coli U 20; U20, 24 h, read-out: minimal inhibitory concentration (MIC), agar serial dilution, 24 hours, 37° C.): 12.5 mg/L; MIC (Staph.aureus A 2001 [14]): 0.45 mg/L; MIC (Staph.aureus A 2001 [15]): 0.75 mg/L; minimal inhibitory concentration (MIC) (Shig.equir. T 3; 24 hours): 6 mg/L"
"O=C(O)Cc1noc(CC(=O)O)n1 [Example 39, 1,2,4-oxadiazole-3,5-diyl-bisacetic acid]",,,,,,,,,,,,,,,,,,,,,degraded at 24 h [18]: < 5%
